Results as given in PubChem BioAssay AID493136 (Sanford-Burnham Center for Chemical Genomics, 2011).
Calls of active or inactive are those of the source. How the calls were made is not given here.

target: Alkaline phosphatase, germ cell type (Homo sapiens) (UniProt P10696); experiment: PLAP-like enzyme inhibition by analogs, SAR follow-up, selectivity assay for mouse IAP inhibitor project, biochemical, human placental-like ALPPL2 isozyme (AID 493136); details: purified placental-like alkaline phosphatase, phosphatase activity
Sequence (P10696 whole entry, looked up): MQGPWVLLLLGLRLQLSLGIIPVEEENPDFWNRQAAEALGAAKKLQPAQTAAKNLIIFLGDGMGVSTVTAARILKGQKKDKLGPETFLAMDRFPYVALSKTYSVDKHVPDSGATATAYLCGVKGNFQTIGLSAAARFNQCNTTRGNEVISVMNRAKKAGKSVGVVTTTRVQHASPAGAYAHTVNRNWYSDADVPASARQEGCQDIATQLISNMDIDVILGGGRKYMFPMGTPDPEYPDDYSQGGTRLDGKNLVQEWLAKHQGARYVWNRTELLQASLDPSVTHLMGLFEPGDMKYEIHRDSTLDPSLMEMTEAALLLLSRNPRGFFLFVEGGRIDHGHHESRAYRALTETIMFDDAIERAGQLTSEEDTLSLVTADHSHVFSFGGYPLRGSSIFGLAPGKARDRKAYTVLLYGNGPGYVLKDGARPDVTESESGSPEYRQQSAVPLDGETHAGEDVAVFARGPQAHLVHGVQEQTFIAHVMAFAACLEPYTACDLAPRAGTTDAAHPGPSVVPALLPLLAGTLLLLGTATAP

SMILES | IC50
Cc1cc(Cl)ccc1NC(=S)NCCC(c1ccccc1)c1ccccc1 | > 100 µM (inactive)
Cn1cc(CN2CCC(C(=O)Nc3cccc(-c4cccc(F)c4)c3)CC2)cn1 | > 100 µM (inactive)
S=C(NCCC(c1ccccc1)c1ccccc1)Nc1ccc(Nc2ccccc2)cc1 | > 100 µM (inactive)
CCN1CCN(S(=O)(=O)c2ccc3[nH]c(=O)oc3c2)CC1 | > 100 µM (inactive)
O=C(Nc1cccc(-c2cccc(Cl)c2)c1)C1CCN(Cc2ccc(CO)o2)CC1 | > 100 µM (inactive)
C=CCn1cc(CN2CCC(C(=O)Nc3cccc(-c4cccc(Cl)c4)c3)CC2)c(C)n1 | > 100 µM (inactive)
O=[N+]([O-])c1ccc(NC(=S)NCCC(c2ccccc2)c2ccccc2)cc1 | > 100 µM (inactive)
Cc1cccc(NC(=S)NCCC(c2ccccc2)c2ccccc2)c1C | > 100 µM (inactive)
CN(C)S(=O)(=O)c1cccc(NC(=S)NCCC(c2ccccc2)c2ccccc2)c1 | > 100 µM (inactive)
CN1CCC(=NNC(=O)c2cc(O)c(O)c(O)c2)CC1 | > 100 µM (inactive)
CC1(c2ccccc2)CC(C)(C)N(C(=S)Nc2ccccc2)c2ccccc21 (stereo not drawn) | > 100 µM (inactive)
CCc1ccccc1Nc1nc(-c2ccc(O)c(O)c2)cs1 | > 100 µM (inactive)
CCn1ncc(CN2CCC(C(=O)Nc3cccc(-c4cccc(F)c4)c3)CC2)c1C | > 100 µM (inactive)
FC(F)(F)c1cccc(NC(=S)NCCC(c2ccccc2)c2ccccc2)c1 | > 100 µM (inactive)
Cc1cc(=O)oc2cc(NC(=S)NCCC(c3ccccc3)c3ccccc3)ccc12 | > 100 µM (inactive)
CCn1c(SCC(=O)c2ccc(O)c(O)c2)nnc1-c1ccccc1OC | 24.4 µM
Cc1cc(C)cc(NC(=S)NCCC(c2ccccc2)c2ccccc2)c1 | > 100 µM (inactive)
Cc1nn(C)c(Cl)c1CN1CCC(C(=O)Nc2cccc(-c3cccc(F)c3)c2)CC1 | > 100 µM (inactive)
COc1ccc(Cl)cc1NC(=S)NCCC(c1ccccc1)c1ccccc1 | > 100 µM (inactive)
C=CCn1cc(CN2CCC(C(=O)Nc3cccc(-c4cccc(F)c4)c3)CC2)c(C)n1 | > 100 µM (inactive)

SMILES | IC50
Cc1c(CN2CCC(C(=O)Nc3cccc(-c4cccc(Cl)c4)c3)CC2)cnn1C | > 100 µM (inactive)
CC(C)c1ccccc1NC(=S)NCCC(c1ccccc1)c1ccccc1 | > 100 µM (inactive)
Fc1ccc(NC(=S)NCCC(c2ccccc2)c2ccccc2)cc1Cl | > 100 µM (inactive)
NS(=O)(=O)c1ccc(NC(=S)NCCC(c2ccccc2)c2ccccc2)cc1 | > 100 µM (inactive)
COc1ccc(Cl)cc1Nc1nc(-c2ccc(O)c(O)c2)cs1 | > 100 µM (inactive)
COc1cccc(-c2cccc(NC(=O)C3CCN(Cc4ccc(CO)o4)CC3)c2)c1 | > 100 µM (inactive)
COc1cc([N+](=O)[O-])ccc1NC(=S)NCCC(c1ccccc1)c1ccccc1 | > 100 µM (inactive)
O=C(CN1C(=O)/C(=C/c2ccco2)SC1=S)Nc1cccc(C(=O)O)c1 | > 100 µM (inactive)
COC(=O)c1cc(NC(=S)NCCC(c2ccccc2)c2ccccc2)cc(C(=O)OC)c1 | > 100 µM (inactive)
Cc1cc(NC(=O)CCNS(=O)(=O)c2ccc3[nH]c(=O)oc3c2)ccc1Br | > 100 µM (inactive)
CCn1cc(CN2CCC(C(=O)Nc3cccc(-c4cccc(OC)c4)c3)CC2)c(C)n1 | > 100 µM (inactive)
COc1ccc(NC(=S)NCCC(c2ccccc2)c2ccccc2)cc1 | > 100 µM (inactive)
COc1ccc(C(=O)CSc2n[nH]c(-c3ccccc3)n2)cc1OC | > 100 µM (inactive)
CCCn1ncc(CN2CCC(C(=O)Nc3cccc(-c4cccc(F)c4)c3)CC2)c1C | > 100 µM (inactive)
CCn1cc(CN2CCC(C(=O)Nc3cccc(-c4cccc(Cl)c4)c3)CC2)cn1 | > 100 µM (inactive)
O=C(CN1C(=O)/C(=C\c2ccco2)SC1=S)Nc1ccccc1C(=O)O | > 100 µM (inactive)
COc1cccc(NC(=S)NCCC(c2ccccc2)c2ccccc2)c1 | > 100 µM (inactive)
Oc1ccc(-c2csc(Nc3cccc4ccccc34)n2)cc1O | > 100 µM (inactive)
S=C(NCCC(c1ccccc1)c1ccccc1)Nc1cccc(Cl)c1 | > 100 µM (inactive)

The remaining lines, values ahead:

IC50 | SMILES
> 100 µM (inactive) | CC(C)N1CCC(=NNC(=O)c2cc(O)c(O)c(O)c2)CC1
> 100 µM (inactive) | O=C(CN1C(=O)/C(=C/c2ccco2)SC1=S)Nc1ccc(C(=O)O)cc1
> 100 µM (inactive) | CCn1nc(C)c(CN2CCC(C(=O)Nc3cccc(-c4cccc(F)c4)c3)CC2)c1C
> 100 µM (inactive) | O=C(Nc1cccc(-c2cccc(Cl)c2)c1)C1CCN(C2CCC2)CC1
> 100 µM (inactive) | S=C(NCCC(c1ccccc1)c1ccccc1)Nc1ccc(Cl)c(Cl)c1
> 100 µM (inactive) | CCn1cc(CN2CCC(C(=O)Nc3cccc(-c4cccc(OC)c4)c3)CC2)cn1
> 100 µM (inactive) | Fc1ccccc1NC(=S)NCCC(c1ccccc1)c1ccccc1
> 100 µM (inactive) | Cc1ccc(NC(=S)NCCC(c2ccccc2)c2ccccc2)cc1
> 100 µM (inactive) | Cc1ccc(NC(=S)NCCC(c2ccccc2)c2ccccc2)cc1C
> 100 µM (inactive) | CCOC(=O)c1ccc(NC(=S)NCCC(c2ccccc2)c2ccccc2)cc1
> 100 µM (inactive) | Cc1ccc(C)c(NC(=S)NCCC(c2ccccc2)c2ccccc2)c1
> 100 µM (inactive) | S=C(NCCC(c1ccccc1)c1ccccc1)Nc1ccc(Cl)cc1Cl
> 100 µM (inactive) | Cc1c(Cl)cccc1NC(=S)NCCC(c1ccccc1)c1ccccc1
> 100 µM (inactive) | COc1cc(NC(=S)NCCC(c2ccccc2)c2ccccc2)cc(OC)c1
> 100 µM (inactive) | COc1cccc(-c2cccc(NC(=O)C3CCN(Cc4ccc(C)o4)CC3)c2)c1
> 100 µM (inactive) | CCn1cc(CN2CCC(C(=O)Nc3cccc(-c4cccc(F)c4)c3)CC2)cn1
> 100 µM (inactive) | CC(C)n1cc(CN2CCC(C(=O)Nc3cccc(-c4cccc(Cl)c4)c3)CC2)cn1
> 100 µM (inactive) | CC(C)n1cc(CN2CCC(C(=O)Nc3cccc(-c4cccc(F)c4)c3)CC2)cn1
> 100 µM (inactive) | O=S(=O)(Nc1ncccn1)c1ccc(NC(=S)NCCC(c2ccccc2)c2ccccc2)cc1
> 100 µM (inactive) | S=C(NCCC(c1ccccc1)c1ccccc1)Nc1ccc(Cl)cc1
> 100 µM (inactive) | Cn1cc(CN2CCC(C(=O)Nc3cccc(-c4cccc(Cl)c4)c3)CC2)cn1
> 100 µM (inactive) | COCc1ccc(CN2CCC(C(=O)Nc3cccc(-c4cccc(Cl)c4)c3)CC2)o1
> 100 µM (inactive) | O=C(Nc1cccc(-c2cccc(F)c2)c1)C1CCN(Cc2ccc(CO)o2)CC1
> 100 µM (inactive) | S=C(NCCC(c1ccccc1)c1ccccc1)Nc1ccccc1
> 100 µM (inactive) | Cc1c(Cl)cccc1Nc1nc(-c2ccc(O)c(O)c2)cs1
> 100 µM (inactive) | Cc1ccc(CN2CCC(C(=O)Nc3cccc(-c4cccc(F)c4)c3)CC2)o1
> 100 µM (inactive) | CCn1nc(C)c(CN2CCC(C(=O)Nc3cccc(-c4cccc(Cl)c4)c3)CC2)c1C
> 100 µM (inactive) | Cc1ccc(NC(=O)CCNS(=O)(=O)c2ccc3[nH]c(=O)oc3c2)cc1C
> 100 µM (inactive) | Cc1nn(C(C)C)c(C)c1CN1CCC(C(=O)Nc2cccc(-c3cccc(F)c3)c2)CC1
